According to US11213567B2, “ZAG-derived peptide and use thereof” (L&C Bio Co., LTD., priority 2017, dated 2022):

Assays:
Histamine = assay: Atopic dermatitis efficacy test using mast cells (RBL-2H3): histamine released after PMA and A23187, ELISA; type: cell-based, rat; design: key: •: have statistical significance, determining as effective, compared with the positive control; conditions: 1 μg/mL for 24 hours, then PMA 1 μg/mL, A23187 1 μg/mL 12 hours
Method: (§1) To select an amino acid sequence corresponding to a key active site of ZAG having efficacy in the alleviation of atopic symptoms from 18 peptide candidate groups, an atopic dermatitis efficacy test was performed. Five types of immune-related cells were treated with ZAG peptide candidate groups (Z1-Z18, SEQ ID NOs: 1 to 18, respectively) and the ZAG protein (Z0, SEQ ID NOs: 19) at a concentration of 1 μg/mL for 24 hours, and then treated with a stimulator suitable for each cell line for the listed time to confirm an immune response. The experiment was performed with a group treated with only a stimulator as a positive control experimental group, and a group treated with only a vehicle without a stimulator as a negative control experimental group (Table 2: Efficacy test method for atopic dermatitis). An inflammatory response-related enzyme used as a stimulator is produced by immune cells, and histamine initiates an inflammatory response. The immune cells migrating to a damaged region release cytokines such as tumor necrosis factor-α (TNF-α) and interleukin-6 (IL-6) to directly lyse foreign invasive substances or collect other immune cells to initiate an inflammatory response. An efficacy test using inflammation-inducing materials, interferon-γ and skin inflammation-related factor CCL-17/thymus- and activation-regulated chemokine (TARC) was also performed to confirm an immune response.
Mast cells (RBL-2H3) were treated with 1 μg/mL of PMA and 1 μg/mL of A23187 as stimulators for 12 hours, and a concentration of histamine released in a cell culture medium was confirmed by ELISA assay.
(§2) Various types of immune cells were treated with each of Z20mer-1, Z20mer-2, Z20mer-3, Z15mer-1, Z15mer-2, Z15mer-3 and Z15mer-4 at a concentration of 1 μg/mL for 24 hours, and then treated with a stimulator suitable for each cell line for the listed time to confirm an immune response. The atopic dermatitis efficacy test method was performed by the same method as described in Example 1 and Table 2.
(§3) The experiment was performed with experimental groups: 1) negative control: vehicle-treated group (Neg), 2) positive control: a group treated with only a stimulator (Pos), and 3) experimental group: groups treated with a stimulator and ZAG3 or a ZAG3-derived oligopeptide (Z20mer-1, Z20mer-2, Z20mer-3, Z15mer-1, Z15mer-2, Z15mer-3 or Z15mer-4). Concentrations were measured from cell culture by ELISA.
Mast cells (RBL-2H3) were treated with 1 μg/mL of PMA and 1 μg/mL of A23187 as simulators for 12 hours, and then a concentration of histamine released in a cell culture medium was confirmed by ELISA assay. As compared with the positive control (Pos), in all of the oligopeptide-treated groups, the histamine release was reduced (FIG. 2B).

CCL17/TARC = assay: Atopic dermatitis efficacy test using keratinocytes (HaCaT): CCL17/TARC released after TNF-α and IFN-γ, ELISA; type: cell-based, human; design: key to HaCaT (human) CCL17/TARC: •: have statistical significance, determining as effective, compared with the positive control; conditions: for HaCaT (human) CCL17/TARC: 1 μg/mL for 24 hours, then TNF-α 0.4 μg/mL, IFN-γ 0.4 μg/mL 24 hours
Method: as §1
Keratinocytes (HaCaT cells) were treated with 0.4 μg/mL of TNF-α and 0.4 μg/mL of IFN-γ as stimulators for 24 hours, and then a concentration of CCL17/TARC released in a cell culture medium was confirmed by ELISA assay.
as §2, §3

IL-6 = assay: Atopic dermatitis efficacy test using macrophages (RAW 264.7): IL-6 released after LPS, ELISA; type: cell-based, mouse; design: key to RAW 264.7 (mouse) IL-6: •: have statistical significance, determining as effective, compared with the positive control; conditions: for RAW 264.7 (mouse) IL-6: 1 μg/mL for 24 hours, then LPS 0.1 μg/mL 24 hours; for IL-6 concentration released in cell culture medium: Example 2-1, FIG. 2A, RAW 264.7, 1 μg/mL 24 hours, LPS 0.1 μg/mL 24 hours, compared with positive control (Pos)
Method: as §1
Macrophages (RAW 264.7 cells) were treated with a stimulator LPS at a concentration of 0.1 μg/mL for 24 hours, and then the concentration of IL-6 released in a cell culture medium was confirmed by ELISA assay.
as §2, §3
Macrophages (RAW 264.7 cells) were treated with a stimulator LPS at a concentration of 0.1 μg/mL for 24 hours, and then a concentration of IL-6 released in a cell culture medium was confirmed by ELISA assay.

IL-4 = assay: Atopic dermatitis efficacy test using T lymphocytes: IL-4 released after IL-2, ELISA; type: cell-based, human; design: key to T lymphocyte (human) IL-4: •: have statistical significance, determining as effective, compared with the positive control; conditions: for IL-4 concentration released in cell culture medium: Example 1-5, FIG. 1E, IL-2 50 ng/mL 12 hours; for IL-4 concentration released in cell culture medium / IL-4: T lymphocytes, 1 μg/mL 24 hours; for T lymphocyte (human) IL-4: 1 μg/mL for 24 hours, then IL-2 50 ng/mL 12 hours; for IL-4: Example 2-5, FIG. 2E, compared with positive control (Pos)
Method: as §1
An atopic dermatitis efficacy test using T lymphocytes was performed with six peptide candidate groups (Z3, Z4, Z5, Z12, Z14, and Z15), which were determined to have efficacy from the results of Examples 1-1 to 1-4 described above. T lymphocytes were treated with 50 ng/mL of IL-2 as a stimulator for 12 hours, and a concentration of IL-4 released in a cell culture medium was confirmed by ELISA assay.
as §2, §3
An experiment was performed on T lymphocytes using the target peptides selected through the previous experiment. As compared with the positive control (Pos), in all of the oligopeptide-treated groups (Z20mer-1, Z20mer-2, Z20mer-3, Z15mer-1, Z15mer-2, Z15mer-3, and Z15mer-4), IL-4 was reduced (FIG. 2E).

IgE = assay: Atopic dermatitis efficacy test using B lymphocytes (RPMI 1788): IgE released after LPS, ELISA; type: cell-based, human; design: key: •: have statistical significance, determining as effective, compared with the positive control; conditions: then LPS 0.1 μg/mL 24 hours
Method: as §1
B lymphocytes (RPMI 1788) were treated with 0.1 μg/mL of LPS as a stimulator for 24 hours, and a concentration of IgE released in a cell culture medium was confirmed by ELISA assay.
as §2, §3
B lymphocytes (RPMI 1788) were treated with 0.1 μg/mL of LPS as a stimulator for 24 hours, and then a concentration of IgE released in a cell culture medium was confirmed by ELISA assay. As compared with the positive control (Pos), in all of the oligopeptide-treated groups, IgE was reduced (FIG. 2D).

[1] = Table 3, 1 μg/mL for 24 hours, vs stimulator only
[2] = Table 5, 1 μg/mL for 24 hours, vs positive control

Substance: Z1: ZAG protein-derived peptide, SEQ ID NO. 1: QENQDGRYSLTYIYTGLSKHVEDVPAFQAL (ZAG protein-derived peptide)
- RBL-2H3 (rat) Histamine (Histamine; Table 3, vs stimulator only): •
- HaCaT (human) CCL17/TARC (CCL17/TARC; Table 3, vs stimulator only): •
- RAW 264.7 (mouse) IL-6 (IL-6; Table 3, vs stimulator only): •

Substance: Z2: ZAG protein-derived peptide, SEQ ID NO. 2: GSLNDLQFFRYNSKDRKSQPMGLWRQVEGM (ZAG protein-derived peptide)
- RBL-2H3 (rat) Histamine (Histamine; Table 3, vs stimulator only): •
- HaCaT (human) CCL17/TARC (CCL17/TARC; Table 3, vs stimulator only): •
- RAW 264.7 (mouse) IL-6 (IL-6; Table 3, vs stimulator only): •

Substance: Z9: ZAG protein-derived peptide, SEQ ID NO. 9: TYQSWVVVAVPPQDTAPYSCHVQHSSLAQP (listed as Homo sapiens)
- RBL-2H3 (rat) Histamine (Histamine; Table 3, vs stimulator only): •
- RAW 264.7 (mouse) IL-6 (IL-6; Table 3, vs stimulator only): •

Substance: Z10: ZAG protein-derived peptide, SEQ ID NO. 10: GLSKHVEDVPAFQALGSLNDLQFFRYNSKD (ZAG protein-derived peptide)
- RBL-2H3 (rat) Histamine (Histamine; Table 3, vs stimulator only): •
- HaCaT (human) CCL17/TARC (CCL17/TARC; Table 3, vs stimulator only): •
- RAW 264.7 (mouse) IL-6 (IL-6; Table 3, vs stimulator only): •

Substance: Z11: ZAG protein-derived peptide, SEQ ID NO. 11: RKSQPMGLWRQVEGMEDWKQDSQLQKARED (ZAG protein-derived peptide)
- RBL-2H3 (rat) Histamine (Histamine; Table 3, vs stimulator only): •

Substance: Z12: ZAG protein-derived peptide, SEQ ID NO. 12: PFDPAAQITKQKWEAEPVYVQRAKAYLEEE (ZAG protein-derived peptide)
- HaCaT (human) CCL17/TARC (CCL17/TARC; Table 3, vs stimulator only): •
- IL-4 concentration released in cell culture medium (IL-4): significantly decreased
- T lymphocyte (human) IL-4 (IL-4; Table 3, vs stimulator only): •
- B lymphocyte (human) IgE (IgE; [1]): •

Substance: Z13: ZAG protein-derived peptide, SEQ ID NO. 13: CPATLRKYLKYSKNILDRQDPPSVVVTSHQ (ZAG protein-derived peptide)
- HaCaT (human) CCL17/TARC (CCL17/TARC; Table 3, vs stimulator only): •
- B lymphocyte (human) IgE (IgE; [1]): •

Substance: Z15: ZAG protein-derived peptide, SEQ ID NO. 15: ENNRSSGAFWKYYYDGKDYIEFNKEIPAWV (listed as Homo sapiens)
- RBL-2H3 (rat) Histamine (Histamine; Table 3, vs stimulator only): •
- IL-4 concentration released in cell culture medium (IL-4): significantly decreased

Substance: Z15mer-1: ZAG3-derived oligopeptide, SEQ ID NO. 23: EDWKQDSQLQKARED (ZAG protein-derived peptide)
- RBL-2H3 (rat) Histamine (Histamine; Table 5, vs positive control): •
- IL-4 (IL-4): reduced
- T lymphocyte (human) IL-4 (IL-4; Table 5, vs positive control): •
- IL-6 concentration released in cell culture medium (IL-6): significantly decreased
- RAW 264.7 (mouse) IL-6 (IL-6; Table 5, vs positive control): •
- B lymphocyte (human) IgE (IgE; [2]): •

Substance: Z15mer-2: ZAG3-derived oligopeptide, SEQ ID NO. 24: DSQLQKAREDIFMET (ZAG protein-derived peptide)
- RBL-2H3 (rat) Histamine (Histamine; Table 5, vs positive control): •
- IL-4 (IL-4): reduced
- T lymphocyte (human) IL-4 (IL-4; Table 5, vs positive control): •
- IL-6 concentration released in cell culture medium (IL-6): significantly decreased
- RAW 264.7 (mouse) IL-6 (IL-6; Table 5, vs positive control): •
- B lymphocyte (human) IgE (IgE; [2]): •

Substance: Z16: ZAG protein-derived peptide, SEQ ID NO. 16: APGEKKKLKCLAYDFYPGKIDVHWTRAGEV (ZAG protein-derived peptide)
- T lymphocyte (human) IL-4 (IL-4; Table 3, vs stimulator only): •
- B lymphocyte (human) IgE (IgE; [1]): •

Substance: Z17: ZAG protein-derived peptide, SEQ ID NO. 17: QEPELRGDVLHNGNGTYQSWVVVAVPPQDT (ZAG protein-derived peptide)
- RBL-2H3 (rat) Histamine (Histamine; Table 3, vs stimulator only): •
- B lymphocyte (human) IgE (IgE; [1]): •

Substance: Z18: ZAG protein-derived peptide, SEQ ID NO. 18: AVPPQDTAPYSCHVQHSSLAQPLVVPWEAS (ZAG protein-derived peptide)
- RBL-2H3 (rat) Histamine (Histamine; Table 3, vs stimulator only): •
- HaCaT (human) CCL17/TARC (CCL17/TARC; Table 3, vs stimulator only): •
- B lymphocyte (human) IgE (IgE; [1]): •

Substance: Z20mer-1: ZAG3-derived oligopeptide, SEQ ID NO. 20: EDWKQDSQLQKAREDIFMET (ZAG protein-derived peptide)
- RBL-2H3 (rat) Histamine (Histamine; Table 5, vs positive control): •
- CCL17/TARC concentration released in cell culture medium (CCL17/TARC; Example 2-3, FIG. 2C, HaCaT, 1 μg/mL 24 hours, TNF-α 0.4 μg/mL and IFN-γ 0.4 μg/mL 24 hours, compared with positive control (Pos)): significantly decreased
- HaCaT (human) CCL17/TARC (CCL17/TARC; Table 5, vs positive control): •
- IL-4 (IL-4): reduced
- T lymphocyte (human) IL-4 (IL-4; Table 5, vs positive control): •
- B lymphocyte (human) IgE (IgE; [2]): •

Substance: Z20mer-2: ZAG3-derived oligopeptide, SEQ ID NO. 21: DSQLQKAREDIFMETLKDIV (ZAG protein-derived peptide)
- RBL-2H3 (rat) Histamine (Histamine; Table 5, vs positive control): •
- IL-4 (IL-4): reduced
- T lymphocyte (human) IL-4 (IL-4; Table 5, vs positive control): •
- B lymphocyte (human) IgE (IgE; [2]): •

Substance: Z20mer-3: ZAG3-derived oligopeptide, SEQ ID NO. 22: KAREDIFMETLKDIVEYYND (ZAG protein-derived peptide)
- RBL-2H3 (rat) Histamine (Histamine; Table 5, vs positive control): •
- IL-4 (IL-4): reduced
- T lymphocyte (human) IL-4 (IL-4; Table 5, vs positive control): •
- IL-6 concentration released in cell culture medium (IL-6): significantly decreased
- RAW 264.7 (mouse) IL-6 (IL-6; Table 5, vs positive control): •
- B lymphocyte (human) IgE (IgE; [2]): •
